Assay: Cytotoxicity in uninfected treated cultures (CC50)
Format: cell-based
Conditions: human, uninfected MRC-5 human embryo lung cells; Table 7; concentration yielding 50% cytotoxicity, uninfected MRC-5 cells

CSc1nc2ccc(OCCC3CCN(c4ccc(C)nn4)CC3)cc2o1 [Compound 4, 6-{2-[1-(6-Methyl-3-pyridazinyl)-4-piperidinyl]ethoxy}-2-methylthiobenzoxazole]
CC50: > 1 µg/mL
